Measured values reported in ChEMBL document CHEMBL3352069, “Thieno[2,3-b]pyridines as negative allosteric modulators of metabotropic GluR5 receptors: hit-to-lead optimization” (Bioorg Med Chem Lett, 2014).

How the values were obtained:
[1] = molecular target: Metabotropic glutamate receptor 5 (Rattus norvegicus) (UniProt P31424); assay: Displacement of [3H]-M-MPEP from mGluR5 in rat cerebrocortical membrane preparation at 1 uM; assay type: cell membranes
[2] = molecular target: T1, Metabotropic glutamate receptor 5 (Rattus norvegicus, UniProt P31424); assay: Inhibition of mGluR5 in rat embryo neuronal culture assessed as calcium level by Fluo-4/AM dye based fluorometry; assay type: functional
[3] = molecular target: T1, Metabotropic glutamate receptor 5; assay: Displacement of [3H]-M-MPEP from mGluR5 in rat cerebrocortical membrane preparation; assay type: cell membranes
Rattus norvegicus = assay: Anxiolytic activity in ip dosed rat assessed as increase in number of shocks measured for 30 mins Vogel punished drinking model; assay type: functional, organism-based

T1 sequence (P31424 whole entry): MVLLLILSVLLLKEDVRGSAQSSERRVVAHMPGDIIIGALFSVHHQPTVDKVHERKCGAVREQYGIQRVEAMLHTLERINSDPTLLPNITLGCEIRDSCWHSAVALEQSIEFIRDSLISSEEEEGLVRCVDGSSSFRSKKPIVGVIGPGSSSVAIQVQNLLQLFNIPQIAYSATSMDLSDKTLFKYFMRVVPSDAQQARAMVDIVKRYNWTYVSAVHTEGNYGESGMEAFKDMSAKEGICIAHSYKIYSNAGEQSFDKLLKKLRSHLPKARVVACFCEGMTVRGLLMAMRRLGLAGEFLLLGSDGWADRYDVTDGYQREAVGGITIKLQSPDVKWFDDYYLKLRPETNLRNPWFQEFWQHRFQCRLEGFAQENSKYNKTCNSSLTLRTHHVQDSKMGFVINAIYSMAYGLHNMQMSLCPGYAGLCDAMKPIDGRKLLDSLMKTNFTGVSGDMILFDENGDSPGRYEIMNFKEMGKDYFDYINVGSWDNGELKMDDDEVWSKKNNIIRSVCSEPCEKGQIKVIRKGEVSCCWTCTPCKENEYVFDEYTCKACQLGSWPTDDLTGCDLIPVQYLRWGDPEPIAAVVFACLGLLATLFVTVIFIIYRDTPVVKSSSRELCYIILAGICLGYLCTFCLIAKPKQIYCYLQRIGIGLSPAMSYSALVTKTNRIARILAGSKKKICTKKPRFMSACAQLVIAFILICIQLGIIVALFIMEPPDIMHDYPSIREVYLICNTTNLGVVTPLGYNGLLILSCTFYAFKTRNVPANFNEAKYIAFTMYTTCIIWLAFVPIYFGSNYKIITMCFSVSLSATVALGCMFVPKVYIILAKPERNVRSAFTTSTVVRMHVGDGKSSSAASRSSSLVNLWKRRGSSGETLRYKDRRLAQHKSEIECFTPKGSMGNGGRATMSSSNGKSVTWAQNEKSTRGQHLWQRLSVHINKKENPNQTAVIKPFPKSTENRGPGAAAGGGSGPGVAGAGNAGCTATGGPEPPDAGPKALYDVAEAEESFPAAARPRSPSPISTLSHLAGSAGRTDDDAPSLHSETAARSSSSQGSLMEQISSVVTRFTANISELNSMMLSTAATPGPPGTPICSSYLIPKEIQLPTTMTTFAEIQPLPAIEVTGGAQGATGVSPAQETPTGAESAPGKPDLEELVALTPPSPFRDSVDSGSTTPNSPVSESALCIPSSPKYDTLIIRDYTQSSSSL
Chain of Metabotropic glutamate receptor 5 (Rattus norvegicus) (P31424 21-1203 limits assumed): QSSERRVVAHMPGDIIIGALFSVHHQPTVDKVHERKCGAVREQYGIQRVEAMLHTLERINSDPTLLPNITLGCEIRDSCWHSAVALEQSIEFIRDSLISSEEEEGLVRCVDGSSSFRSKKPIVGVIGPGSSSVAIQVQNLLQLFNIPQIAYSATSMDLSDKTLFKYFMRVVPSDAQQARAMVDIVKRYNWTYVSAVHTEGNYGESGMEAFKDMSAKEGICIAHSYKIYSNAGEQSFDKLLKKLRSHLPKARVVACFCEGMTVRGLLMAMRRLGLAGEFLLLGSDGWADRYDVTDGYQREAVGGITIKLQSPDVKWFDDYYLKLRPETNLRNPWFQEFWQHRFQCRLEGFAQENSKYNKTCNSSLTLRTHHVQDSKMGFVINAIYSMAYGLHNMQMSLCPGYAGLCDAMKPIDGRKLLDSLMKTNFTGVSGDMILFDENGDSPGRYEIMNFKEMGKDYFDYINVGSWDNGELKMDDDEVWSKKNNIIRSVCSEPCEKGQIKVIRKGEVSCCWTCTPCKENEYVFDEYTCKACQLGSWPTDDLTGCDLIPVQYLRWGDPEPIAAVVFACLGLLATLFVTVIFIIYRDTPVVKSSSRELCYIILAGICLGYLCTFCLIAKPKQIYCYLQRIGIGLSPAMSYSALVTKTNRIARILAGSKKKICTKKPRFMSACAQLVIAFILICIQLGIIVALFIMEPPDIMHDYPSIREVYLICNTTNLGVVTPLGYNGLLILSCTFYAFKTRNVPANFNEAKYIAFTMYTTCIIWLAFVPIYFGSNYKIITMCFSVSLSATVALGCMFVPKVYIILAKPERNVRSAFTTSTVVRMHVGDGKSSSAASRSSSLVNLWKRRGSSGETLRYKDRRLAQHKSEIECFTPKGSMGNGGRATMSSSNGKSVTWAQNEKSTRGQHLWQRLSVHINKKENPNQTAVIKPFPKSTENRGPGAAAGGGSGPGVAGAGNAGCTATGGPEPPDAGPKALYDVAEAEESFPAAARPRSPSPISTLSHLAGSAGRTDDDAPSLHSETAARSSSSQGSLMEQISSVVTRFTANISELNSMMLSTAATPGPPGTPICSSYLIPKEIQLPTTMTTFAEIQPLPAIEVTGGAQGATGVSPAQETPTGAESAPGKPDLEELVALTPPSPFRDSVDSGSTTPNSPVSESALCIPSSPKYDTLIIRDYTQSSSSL

Structure (SMILES) | inhibition [1] | Ki [3] | other results
O=C(CCc1ccc(F)cc1)c1sc2ncccc2c1-c1ccc(F)cc1 | – | 180 nM | IC50 [2]: 1000 nM
Fc1ccc(C/C=C/c2sc3ncccc3c2-c2ccc(F)cc2)cc1 | 12% | – | –
O=C(Cc1ccc(F)cc1)c1sc2ncccc2c1-c1ccc(F)cc1 | – | 140 nM | –
O=C(CCc1cccc(F)c1)c1sc2ncccc2c1-c1ccc(F)cc1 | – | 224 nM | –
Fc1ccc(-c2nc(-c3sc4ncccc4c3-c3ccc(Cl)cc3)no2)cc1 | 0% | – | –
c1ccc(-c2csc3ncccc23)cc1 | 0% | – | –
O=C(CCc1ccccc1)c1sccc1-c1ccc(F)cc1 | 0% | – | –
CN(Cc1ccc(F)cc1)C(=O)c1sc2ncccc2c1-c1ccc(Cl)cc1 | 13% | – | –
CN(C(=O)c1sc2ncccc2c1-c1ccc(F)cc1)c1ccc(F)cc1 | 19% | – | –
O=S(=O)(c1ccc(Cl)cc1)c1sc2ncccc2c1-c1ccc(Cl)cc1 | – | 12.3 nM | Activity (Rattus norvegicus): Dose-dependent effect; IC50 [2]: 46 nM
O=C(CCc1ccc(F)cc1)c1[nH]c2ccccc2c1-c1ccc(F)cc1 | 4% | – | –
O=C(CCc1ccccc1)c1sccc1-c1ccccc1 | 0% | – | –
O=C(c1ccc(Cl)cc1)c1sc2ncccc2c1-c1ccc(F)cc1 | 30% | – | –
O=C(Cc1ccc(F)cc1)c1sc2ncccc2c1-c1ccc(Cl)cc1 | – | 83 nM | IC50 [2]: 350 nM
O=C(NCc1ccc(F)cc1)c1sc2ncccc2c1-c1ccc(F)cc1 | – | 311 nM | –
O=C(Oc1ccc(F)cc1)c1sc2ncccc2c1-c1ccc(Cl)cc1 | 15% | – | –
CC(=O)c1sc2ncccc2c1-c1ccccc1 | 17% | – | –
O=C(CCc1ccccc1)c1sc2ncccc2c1-c1ccccc1 | – | 730 nM | IC50 [2]: 3300 nM

More lines, main results first:

inhibition [1] | Ki [3] | Structure (SMILES) | other results
0% | – | O=C(Nc1ccc(F)cc1)c1sc2ncccc2c1-c1ccc(Cl)cc1 | –
– | 41 nM | O=C(OCc1ccc(F)cc1)c1sc2ncccc2c1-c1ccc(Cl)cc1 | IC50 [2]: 150 nM
52% | – | Fc1ccc(-c2c(C3=NOC(c4ccc(F)cc4)C3)sc3ncccc23)cc1 (stereo not given) | –
3% | – | OC(CCc1ccc(F)cc1)c1sc2ncccc2c1-c1ccc(F)cc1 (stereo not given) | –
24% | – | Fc1ccc(-c2nnc(-c3sc4ncccc4c3-c3ccc(Cl)cc3)o2)cc1 | –
– | 343 nM | O=C(CCc1ccc(F)cc1)c1sc2ncccc2c1-c1ccccc1 | IC50 [2]: 2100 nM
8% | – | O=C(CCc1ccc(F)cc1)c1sc2ccccc2c1-c1ccc(F)cc1 | –
0% | – | Fc1ccc(CCCc2sc3ncccc3c2-c2ccc(F)cc2)cc1 | –
– | 2500 nM | COc1ccc(CCC(=O)c2sc3ncccc3c2-c2ccccc2)cc1 | IC50 [2]: 8000 nM
